Entries after “also recorded” stand apart in the source; their conditions may differ.
Experiments:
S. mutans [1] = test: (C) Further tests on pH reduction; assay type: cell-based, Streptococcus mutans; conditions: for Mean pH: 0.055 molar chlorodeoxy derivative, pooled data for 2, 3 and 4 hours, Duncan procedure
Procedure: (§1) Plain aqueous solutions were used and also solutions containing amino acids (protein hydrolysate) 1% w/v to approximate the buffering effect of natural saliva. Control experiments were effected using no saccharide in order to illustrate the endogenous metabolism of the organism. Each experiment was quadruplicated and was run at 37° C. The pH was measured at 0, 0.5, 1, 1.5,2, 3 and 4 hours.
Twelve sets of tests were carried out in the same way as described above at (A) but using solutions which were 0.055 molar in the respective chlorodeoxy derivative.
Solutions of the following were employed:
(i) Saline, negative control for endogenous metabolism
(ii) Sucrose, positive control
(iii) 6,1',6'-trichloro-6,1',6'-trideoxysucrose, compound no. 7.
(iv) Compound no. 7 plus sucrose.
(v) 1',6'-dichloro-1',6'-dideoxysucrose, compound no. 4
(vi) Compound no. 4 plus sucrose
(vii) 4,1',6'-trichloro-4,1',6'-trideoxygalactosucrose, Compound no. 5.
(viii) Compound no. 5 plus sucrose
(ix) 4,6,6'-trichloro-4,6,6'-trideoxygalactosucrose, Compound no. 6
(x) Compound no. 6 plus sucrose
(xi) 1'-chloro-1'-deoxysucrose, compound no. 1
(xii) Compound no. 1 plus sucrose
The acid production was monitored as before.

S. mutans [2] = test: (D) Further tests on adherence to teeth; assay type: cell-based, Streptococcus mutans; conditions: for adherence of the cells: statement in words; for % coverage after 0.5 hours / % coverage after 4 hours: glass slide, 0.055 molar, Duncan procedure
Procedure: (§2) The extent to which cells of S. mutans adhere to teeth was investigated using a recognized model system. Solutions of the same substances as in (A) were made up, and the degree of deposition of suspended cells on to glass was studied using a "Magiscan" image analyser (Talyer et al., 1978 Praktischen Metallographie, Sonderbande 8: 433-442).
While recording the pH during the tests of (C), the adherence was monitored in the same way as in (B). The percentage coverage of a glass slide was determined at 0.5 and 4 hours for each solution, and the results treated by the Duncan procedure.

[3] = West German Offenlegungsschrift No. 2700036; cited from earlier work
[4] = tested on: Streptococcus mutans NCTC 10832; test: (A) Effect on reduction of pH by Streptococcus mutans; assay type: cell-based; conditions: for pH: 0.05 molar each saccharide, 37° C; for Mean pH: Duncan Procedure sub-sets, amino acids where named in the solution
Text: Mouth flora such as S. mutans cause dental caries by producing acid which erodes the tooth enamel. The cells exude a polysaccharide which firmly adheres them to the tooth surfaces as plaque, thus enhancing the local erosion by the acid. The effect of chlorodeoxysucroses on acid production by S. mutans in sucrose solutions was studied in comparison with the effect produced by xylitol, an agent proposed as a caries preventative.
as §1

S. mutans [5] = test: (B) Adherence to teeth: deposition of suspended cells on to glass (Magiscan image analyser); assay type: cell-based, Streptococcus mutans; conditions: for Coverage (%) after 0.5 h / Coverage (%) after 4.0 h: mean of 40 determinations
Text: as §2
Each reading is the mean of 40 determinations.

S. mutans [6] = test: Scanning electron microscopy of glass with adherent cells; assay type: cell-based, Streptococcus mutans; conditions: sucrose medium; qualitative
dental plaque = test: (F) Human volunteers: acid production by dental plaque after mouthrinse (glucose pre-rinse); assay type: in vivo; conditions: statement in words
Procedure: The compound 4,1',6'-trichloro-4,1',6'-trideoxygalactosucrose was selected as a suitable candidate for further testing. A mouthrinse in accordance with the invention was prepared using the selected compound as active ingredient. The level of the active ingredient was initially chosen to be such that the mouthrinse tasted the same as a 15% w/v solution of sucrose.
Six subjects were used, who were first acquainted with the available toxicological data and who subsequently agreed to take part in the tests. The subjects were instructed not to clean their teeth on their day of testing. At sampling time, 0 min, each subject took 5% w/v glucose mouthrinse for 2 minutes, then waited a further 8 minutes before the buccal and lingual plaque of one side of the jaw (upper and lower) was removed and placed on aluminium foil and sealed. […]
Samples (0.2 ml) were tested after admixture with 0.1 ml 5% w/v glucose and 0.2 ml sterile saliva. The pH was monitored in quadruplicated tests.
Pooling of data at different times was not justifiable, and the Duncan procedure could not be followed. Data was therefore analysed by computer using an `Analysis of Variance` program and a `Description of Populations` program.

[7] = 0.5 hours, in the presence of sucrose

O[C@@H]1[C@@H](O)[C@@H](O[C@]2(CCl)O[C@H](CCl)[C@@H](O)[C@@H]2O)O[C@H](CCl)[C@H]1O [Compound no. 7, 6,1',6'-trichloro-6,1',6'-trideoxysucrose]
Mean pH (S. mutans [1]): 6.48
effect on acid production / pH (S. mutans [1]; statement in words, pooled 2, 3 and 4 hours): especially effective
adherence of the cells (S. mutans [2]; [7]): most active compounds at 0.5 hours
adherence of the cells (S. mutans [2]; 4 hours): the most active
% coverage after 0.5 hours (S. mutans [2]): 29.7%
% coverage after 4 hours (S. mutans [2]): 54.2%
sweetness relative to sucrose [3]: many times sweeter than sucrose

OC[C@H]1O[C@@](CCl)(O[C@H]2O[C@H](CO)[C@H](Cl)[C@H](O)[C@H]2O)[C@@H](O)[C@@H]1O [compound 3, 4-chloro-4-deoxy-α-D-galactopyranosyl-1-chloro-1-deoxy-β-D-fructofuranoside]
sweetness relative to sucrose [3]: many times sweeter than sucrose

OC[C@@]1(O[C@H]2O[C@H](CCl)[C@H](Cl)[C@H](O)[C@H]2O)O[C@H](CCl)[C@@H](O)[C@@H]1O [Compound no. 6, 4,6-dichloro-4,6-dideoxy-α-D-galactopyranosyl-6-chloro-6-deoxy-β-D-fructofuranoside]
Mean pH (S. mutans [1]): 5.20
% coverage after 0.5 hours (S. mutans [2]): 51.6%
% coverage after 4 hours (S. mutans [2]): 70.8%
sweetness relative to sucrose [3]: do not possess such strong sweetening action

OC[C@H]1O[C@@](CO)(O[C@H]2O[C@H](CO)[C@H](Cl)[C@H](O)[C@H]2O)[C@@H](O)[C@@H]1O [compound 2, 4-chloro-4-deoxy-α-D-galactopyranosyl-β-D-fructofuranoside]
sweetness relative to sucrose [3]: do not possess such strong sweetening action

OC[C@H]1O[C@@](CCl)(O[C@H]2O[C@H](CO)[C@@H](O)[C@H](O)[C@H]2O)[C@@H](O)[C@@H]1O [Compound no. 1, 1'-chloro-1'-deoxysucrose]
Mean pH (S. mutans [1]): 5.09
adherence of the cells (S. mutans [2]; [7]): most active compounds at 0.5 hours
adherence of the cells (S. mutans [2]; 4 hours): the most active
% coverage after 0.5 hours (S. mutans [2]): 35.6%
% coverage after 4 hours (S. mutans [2]): 52.3%
sweetness relative to sucrose [3]: do not possess such strong sweetening action

O[C@@H]1[C@@H](O)[C@@H](O[C@]2(CCl)O[C@H](CCl)[C@@H](O)[C@@H]2O)O[C@H](CCl)[C@@H]1Cl [compound 8, 4,6-dichloro-4,6-dideoxy-α-D-galactopyranosyl-1,6-dichloro-1,6-dideoxy-β-D-fructofuranoside]
sweetness relative to sucrose [3]: many times sweeter than sucrose

OC[C@H]1O[C@@](CO)(O[C@H]2O[C@H](CO)[C@@H](O)[C@H](O)[C@H]2O)[C@@H](O)[C@@H]1O [Sucrose, sucrose]
pH ([4]; 0 h, no amino acids): 5.69
pH ([4]; 0 h, with amino acids 1% w/v): 5.98
pH ([4]; 0.5 h, no amino acids): 4.57
pH ([4]; 0.5 h, with amino acids 1% w/v): 5.55
pH ([4]; 1.0 h, no amino acids): 4.57
pH ([4]; 1.0 h, with amino acids 1% w/v): 5.36
pH ([4]; 1.5 h, no amino acids): 4.58
pH ([4]; 1.5 h, with amino acids 1% w/v): 5.10
pH ([4]; 2.0 h, no amino acids): 4.54
pH ([4]; 2.0 h, with amino acids 1% w/v): 5.00
pH ([4]; 3.0 h, no amino acids): 4.63
pH ([4]; 3.0 h, with amino acids 1% w/v): 4.92
pH ([4]; 4.0 h, no amino acids): 4.55
pH ([4]; 4.0 h, with amino acids 1% w/v): 4.79
Mean pH [4]: 4.57
Coverage (%) after 0.5 h (S. mutans [5]; no amino acid): 37.28%
Coverage (%) after 4.0 h (S. mutans [5]; no amino acid): 65.83%
Coverage (%) after 0.5 h (S. mutans [5]; with amino acid): 31.89%
Coverage (%) after 4.0 h (S. mutans [5]; with amino acid): 75.95%
extracellular coating and size of clumps of adherent cells (S. mutans [6]): characteristically clumped and were coated with extracellular polysaccharide
Mean pH (S. mutans [1]): 4.33
% coverage after 0.5 hours (S. mutans [2]): 51.2%
% coverage after 4 hours (S. mutans [2]): 69.2%

OC[C@@H](O)[C@H](O)[C@@H](O)CO [Xylitol, xylitol]
pH ([4]; 0 h, no amino acids): 5.94
pH ([4]; 0.5 h, no amino acids): 5.50
pH ([4]; 1.0 h, no amino acids): 5.42
pH ([4]; 1.5 h, no amino acids): 5.39
pH ([4]; 2.0 h, no amino acids): 5.32
pH ([4]; 3.0 h, no amino acids): 5.38
pH ([4]; 4.0 h, no amino acids): 5.37
Mean pH [4]: 5.36
effect on acid production ([4]; statement in words): never had a statistically significally effect; also recorded: non-cariogenic but not anti-cariogenic; also recorded: gave about the same mean pH as when carbohydrate was excluded
degree of adhesion (S. mutans [5]; Mann Whitney U-test, statement in words): appeared to cause an increase rather than a decrease
Coverage (%) after 0.5 h (S. mutans [5]; no amino acid): 42.31%
Coverage (%) after 4.0 h (S. mutans [5]; no amino acid): 74.21%
extracellular coating and size of clumps of adherent cells (S. mutans [6]): No such effect was observed

OC[C@H]1O[C@H](O[C@]2(CCl)O[C@H](CCl)[C@@H](O)[C@@H]2O)[C@H](O)[C@@H](O)[C@@H]1O [Compound no. 4, 1',6'-dichloro-1',6'-dideoxysucrose]
Mean pH (S. mutans [1]): 5.48
adherence of the cells (S. mutans [2]; [7]): falling in the sub-set g which includes sucrose itself
adherence of the cells (S. mutans [2]; 4 hours): did not reduce the adherence
% coverage after 0.5 hours (S. mutans [2]): 51.6%
% coverage after 4 hours (S. mutans [2]): 70.3%
sweetness relative to sucrose [3]: many times sweeter than sucrose

O[C@@H]1[C@@H](O)[C@@H](O[C@]2(CCl)O[C@H](CCl)[C@@H](O)[C@@H]2O)O[C@H](CCl)[C@H]1Cl [compound 9, 4,6,1',6'-tetrachloro-4,6,1',6'-tetradeoxysucrose]
sweetness relative to sucrose [3]: many times sweeter than sucrose

O[C@@H]1[C@@H](O)[C@@H](O[C@]2(CCl)O[C@H](CCl)[C@@H](O)[C@@H]2O)O[C@H](CCl)[C@H]1O
antiacidogenic effect on plaque (dental plaque): Statistically conclusive proof that the mouthrinse was evincing an anti-acidogenic effect was not available
yield of plaque as perceived by subjects (dental plaque): increased the yield of plaque
